Data published in ChEMBL document CHEMBL1201862, “PubChem BioAssay data set” (2004).
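Method: 48-hour compound exposure of cells in 96-well plates, five concentrations, linear interpolation of endpoints. At the GI50, growth is halved.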 Activity calls are given as the source filed them. No stated cut-off is given here; in the data, active = GI50 up to about 1.1 µM and inactive = higher.

How the values were obtained:
Experiment in all cases: NCI-60 cell line screen, 48 h
HOP-92 = system: HOP-92
SR = system: SR
COLO 205 = system: COLO 205
SK-MEL-28 = system: SK-MEL-28
HCT-116 = system: HCT-116
MOLT-4 = system: MOLT-4
PC-3 = system: PC-3
M14 = system: M14
NCI/ADR-RES = system: NCI/ADR-RES
OVCAR-5 = system: OVCAR-5
OVCAR-4 = system: OVCAR-4
LOX IMVI = system: LOX IMVI
BT-549 = system: BT-549
NCI-H460 = system: NCI-H460
OVCAR-3 = system: OVCAR-3
DU-145 = system: DU-145
HT-29 = system: HT-29
T47D = system: T47D
EKVX = system: EKVX
SF-295 = system: SF-295
786-0 = system: 786-0
SK-MEL-5 = system: SK-MEL-5
NCI-H23 = system: NCI-H23
HCC 2998 = system: HCC 2998
NCI-H226 = system: NCI-H226
HL-60 = system: HL-60
MDA-N = system: MDA-N
HOP-62 = system: HOP-62
SNB-19 = system: SNB-19
UACC-257 = system: UACC-257
SW-620 = system: SW-620
A549 = system: A549
SK-MEL-2 = system: SK-MEL-2
MCF7 = system: MCF7
IGROV-1 = system: IGROV-1
SF-268 = system: SF-268
KM12 = system: KM12
OVCAR-8 = system: OVCAR-8
RXF 393 = system: RXF 393
A498 = system: A498
UACC-62 = system: UACC-62
Malme-3M = system: Malme-3M
Hs-578T = system: Hs-578T
U-251 = system: U-251
UO-31 = system: UO-31
NCI-H522 = system: NCI-H522
CAKI-1 = system: CAKI-1
SF-539 = system: SF-539
RPMI-8226 = system: RPMI-8226
CCRF-CEM = system: CCRF-CEM
MDA-MB-231 = system: MDA-MB-231
ACHN = system: ACHN
SK-OV-3 = system: SK-OV-3
HCT-15 = system: HCT-15
MDA-MB-435 = system: MDA-MB-435
TK-10 = system: TK-10
SN12C = system: SN12C
K562 = system: K562

In the case of `CC(C)C1=C2CCC3(C)C(CCC4C5C6OCC5(CCC6(C)C)CCC43C)C2(C)CC1` (stereo not given), the GI50 (HOP-92) is reported as 18.6 µM (inactive), the GI50 (SR) is reported as 11.3 µM (inactive) and the GI50 (COLO 205) is reported as 16.7 µM (inactive). The GI50 (SK-MEL-28) was 17.8 µM (inactive), the GI50 (HCT-116) was 18.8 µM (inactive) and the GI50 (MOLT-4) was 16.3 µM (inactive). For the same molecule, the GI50 (PC-3) was > 10 µM (inactive), the GI50 (M14) was 17.4 µM (inactive) and the GI50 (NCI/ADR-RES) was 18.9 µM (inactive). For the same molecule, the GI50 (OVCAR-5) was 33 µM (inactive), the GI50 (OVCAR-4) was 25.3 µM (inactive) and the GI50 (LOX IMVI) was 14.4 µM (inactive). For the same molecule, the GI50 (BT-549) was 22.4 µM (inactive), the GI50 (NCI-H460) was 14 µM (inactive) and the GI50 (OVCAR-3) was 21.3 µM (inactive). The GI50 (DU-145) was 20.2 µM (inactive), the GI50 (HT-29) was 17.7 µM (inactive) and the GI50 (T47D) was 27 µM (inactive). For the same molecule, the GI50 (EKVX) was 19.1 µM (inactive), the GI50 (SF-295) was 19.7 µM (inactive) and the GI50 (786-0) was 17.7 µM (inactive). For the same molecule, the GI50 (SK-MEL-5) was 21.8 µM (inactive), the GI50 (NCI-H23) was 21.3 µM (inactive) and the GI50 (HCC 2998) was 18.8 µM (inactive). For the same molecule, the GI50 (NCI-H226) was 33.7 µM (inactive), the GI50 (HL-60) was 8.81 µM (inactive) and the GI50 (MDA-N) was 13.7 µM (inactive). For the same molecule, the GI50 (HOP-62) was 18.1 µM (inactive), the GI50 (SNB-19) was 29.1 µM (inactive) and the GI50 (UACC-257) was 18.1 µM (inactive). For the same molecule, the GI50 (SW-620) was 22.5 µM (inactive), the GI50 (A549) was 17.3 µM (inactive) and the GI50 (SK-MEL-2) was 29.6 µM (inactive). The GI50 (MCF7) was 23.4 µM (inactive), the GI50 (IGROV-1) was 13.1 µM (inactive) and the GI50 (SF-268) was 28.8 µM (inactive). The GI50 (KM12) was 16.9 µM (inactive), the GI50 (OVCAR-8) was 17.7 µM (inactive) and the GI50 (RXF 393) was 20.6 µM (inactive). The GI50 (A498) was 20.4 µM (inactive), the GI50 (UACC-62) was 17.7 µM (inactive) and the GI50 (Malme-3M) was 20.8 µM (inactive). The GI50 (Hs-578T) was 22.8 µM (inactive), the GI50 (U-251) was 19.1 µM (inactive) and the GI50 (UO-31) was 18.1 µM (inactive). The GI50 (NCI-H522) was 18.8 µM (inactive), the GI50 (CAKI-1) was 20 µM (inactive) and the GI50 (SF-539) was 16.9 µM (inactive). For the same molecule, the GI50 (RPMI-8226) was 13.6 µM (inactive), the GI50 (CCRF-CEM) was 12.3 µM (inactive) and the GI50 (MDA-MB-231) was 20 µM (inactive). For the same molecule, the GI50 (ACHN) was 20 µM (inactive), the GI50 (SK-OV-3) was 58.1 µM (inactive) and the GI50 (HCT-15) was 19.1 µM. For the same molecule, the GI50 (MDA-MB-435) was 17.4 µM (inactive), the GI50 (TK-10) was 16.7 µM (inactive) and the GI50 (SN12C) was 15 µM (inactive).

With `COC(=O)[C@]12CC[C@H]3CN(C(=O)OCc4ccccc4)[C@H]([C@H]31)[C@H](C(=O)OCC[Si](C)(C)C)N2S(=O)(=O)c1ccc(C)cc1` the GI50 (HOP-92) was 3.13 µM (inactive), the GI50 (SR) was 39.2 µM (inactive) and the GI50 (COLO 205) was 17.5 µM (inactive). The GI50 (SK-MEL-28) was > 100 µM (inactive), the GI50 (HCT-116) was 23 µM (inactive) and the GI50 (MOLT-4) was 19.5 µM (inactive). The GI50 (PC-3) was 12.1 µM (inactive), the GI50 (M14) was 26.5 µM (inactive) and the GI50 (NCI/ADR-RES) was > 100 µM (inactive). For the same molecule, the GI50 (OVCAR-5) was > 100 µM (inactive), the GI50 (OVCAR-4) was 11.4 µM (inactive) and the GI50 (LOX IMVI) was 94.4 µM (inactive). The GI50 (BT-549) was > 100 µM (inactive), the GI50 (NCI-H460) was > 100 µM (inactive) and the GI50 (OVCAR-3) was > 100 µM (inactive). For the same molecule, the GI50 (DU-145) was > 100 µM (inactive), the GI50 (HT-29) was 42.7 µM (inactive) and the GI50 (T47D) was 5.32 µM (inactive). For the same molecule, the GI50 (EKVX) was 89.9 µM (inactive), the GI50 (SF-295) was 29 µM (inactive) and the GI50 (786-0) was > 100 µM (inactive). For the same molecule, the GI50 (SK-MEL-5) was 12.2 µM (inactive), the GI50 (NCI-H23) was > 100 µM (inactive) and the GI50 (HCC 2998) was > 100 µM (inactive). The GI50 (NCI-H226) was > 100 µM (inactive), the GI50 (HL-60) was 8.85 µM (inactive) and the GI50 (MDA-N) was 74 µM (inactive). The GI50 (HOP-62) was > 100 µM (inactive), the GI50 (SNB-19) was > 100 µM (inactive) and the GI50 (UACC-257) was 20 µM (inactive). The GI50 (SW-620) was > 100 µM (inactive), the GI50 (A549) was 18.4 µM (inactive) and the GI50 (SK-MEL-2) was 96.4 µM (inactive). The GI50 (MCF7) was 37.3 µM (inactive), the GI50 (IGROV-1) was > 100 µM (inactive) and the GI50 (SF-268) was > 100 µM (inactive). For the same molecule, the GI50 (KM12) was 97.3 µM (inactive), the GI50 (OVCAR-8) was > 100 µM (inactive) and the GI50 (RXF 393) was 4.74 µM (inactive). The GI50 (A498) was 16.7 µM (inactive), the GI50 (UACC-62) was > 100 µM (inactive) and the GI50 (Malme-3M) was 96.6 µM (inactive). The GI50 (Hs-578T) was > 100 µM (inactive), the GI50 (U-251) was > 100 µM (inactive) and the GI50 (UO-31) was 30.3 µM (inactive). For the same molecule, the GI50 (NCI-H522) was > 100 µM (inactive), the GI50 (CAKI-1) was > 100 µM (inactive) and the GI50 (K562) was 15.3 µM (inactive). The GI50 (SF-539) was > 100 µM (inactive), the GI50 (RPMI-8226) was 8.45 µM (inactive) and the GI50 (CCRF-CEM) was 54 µM (inactive). For the same molecule, the GI50 (MDA-MB-231) was 8.13 µM (inactive), the GI50 (ACHN) was 54.7 µM (inactive) and the GI50 (SK-OV-3) was > 100 µM (inactive). For the same molecule, the GI50 (HCT-15) was > 100 µM, the GI50 (MDA-MB-435) was > 100 µM (inactive) and the GI50 (TK-10) was > 100 µM (inactive). For the same molecule, the GI50 (SN12C) was > 100 µM (inactive).
